Source: patent publication US20260069571A1, “DDR1 AND DDR2 INHIBITORS FOR THE TREATEMENT OF CANCER AND FIBROTIC DISEASES” (REDX PHARMA PLC, priority 2021, published 2026)

Experiments:
Recombinant human DDR1 = Recombinant human DDR1 (Homo sapiens (Human), UniProt Q08345); assay: LanthaScreen Eu Kinase Binding Assay, DDR1; conditions: DDR1 2.5 nM (aa440-876, GST tag), Kinase Tracer 178 5 nM; for IC50: read-out: DDR1 pIC50 (converted)
Procedure: (§1) DDR1 and DDR2 Biochemical Assay Method
(§2) The capacity of compounds to bind to DDR1 and DDR2 was quantified using a LanthaScreen Eu Kinase Binding Assay. Recombinant human DDR1 (2.5 nM; aa440-876 containing a GST tag) and DDR2 (1.75 nM; aa427-855 containing a GST tag) were diluted in assay buffer (50 mM HEPES pH7.3, 10 mM MgCl2, 1 mM EGTA and 0.01% Tween) with various concentrations of compound in a 384-well plate and a volume of 5 uL. After a 30-minute incubation at room temperature, 2.5 uL of Eu-anti GST antibody (diluted to 1 nM in assay buffer) plus Kinase Tracer 178 (diluted in assay buffer to 5 nM for DDR1 and 10 nM for DDR2) were added to the plate. Following 60-minute incubation at room temperature, time-resolved fluorescence was measured on a BMG Labtech PHERAstar plate reader. DMSO (1%) and reference compound (1 μM) were used to generate the Max and Min assay signals, respectively. Data was analysed using a four-parameter logistic model to calculate IC50 values, with at least two independent replicates were performed for each compound.

Recombinant human DDR2 = Recombinant human DDR2 (Homo sapiens (Human), UniProt Q16832); assay: LanthaScreen Eu Kinase Binding Assay, DDR2; conditions: DDR2 1.75 nM (aa427-855, GST tag), Kinase Tracer 178 10 nM; for IC50: read-out: DDR2 pIC50 (converted)
Procedure: as §1, §2

Recombinant human DDR2, sequence (Q16832 427-855): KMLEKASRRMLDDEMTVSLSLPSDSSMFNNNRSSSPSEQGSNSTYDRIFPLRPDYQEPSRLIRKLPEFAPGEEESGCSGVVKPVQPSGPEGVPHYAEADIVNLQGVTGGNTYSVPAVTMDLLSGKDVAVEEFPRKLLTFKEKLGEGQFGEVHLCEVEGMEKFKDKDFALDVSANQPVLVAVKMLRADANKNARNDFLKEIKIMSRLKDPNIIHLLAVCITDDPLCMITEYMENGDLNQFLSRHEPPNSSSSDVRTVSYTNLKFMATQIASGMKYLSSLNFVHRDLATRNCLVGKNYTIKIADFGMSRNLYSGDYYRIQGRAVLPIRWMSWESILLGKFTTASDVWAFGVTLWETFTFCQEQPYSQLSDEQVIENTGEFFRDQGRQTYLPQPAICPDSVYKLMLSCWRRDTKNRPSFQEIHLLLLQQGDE
Recombinant human DDR1, sequence (Q08345 other isoform, or with tags, fused parts or gaps): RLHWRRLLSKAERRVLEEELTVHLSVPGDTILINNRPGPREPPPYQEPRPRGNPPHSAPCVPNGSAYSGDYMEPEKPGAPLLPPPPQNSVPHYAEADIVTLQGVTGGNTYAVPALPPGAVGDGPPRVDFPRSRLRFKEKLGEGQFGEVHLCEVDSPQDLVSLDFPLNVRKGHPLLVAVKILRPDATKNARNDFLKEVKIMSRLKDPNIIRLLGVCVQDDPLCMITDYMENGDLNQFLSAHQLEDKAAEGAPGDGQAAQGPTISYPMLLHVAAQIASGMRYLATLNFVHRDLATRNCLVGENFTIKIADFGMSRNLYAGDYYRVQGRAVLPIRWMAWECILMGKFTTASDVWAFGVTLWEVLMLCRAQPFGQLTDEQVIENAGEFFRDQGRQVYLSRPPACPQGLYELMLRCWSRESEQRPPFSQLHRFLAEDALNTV

Compound	IC50 (Recombinant human DDR1)	IC50 (Recombinant human DDR2)	DDR1 pIC50 (Recombinant human DDR1)	DDR2 pIC50 (Recombinant human DDR2)
Cn1ncc2cc(Nc3cccc4c3C(=O)N(CC(=O)N3CCO[C@H](C(F)(F)F)C3)C4)cnc21 [Example 54, 7-[(1-methylpyrazolo[3,4-b]pyridin-5-yl)amino]-2-[2-oxo-2-[(2S)-(trifluoromethyl)morpholin-4-yl]ethyl]isoindolin-1-one]	0.1 to 1 µM	0.1 to 1 µM		
Cn1ncc2cc(Nc3cccc4c3C(=O)N(CC(=O)N3CCC[C@H]3CF)C4)cnc21 [Example 56, 7-[(1-methylpyrazolo[3,4-b]pyridin-5-yl)amino]-2-[2-oxo-2-[(2S)-(fluoromethyl)pyrrolidin-1-yl]ethyl]isoindolin-1-one]	0.01 to 0.1 µM	0.01 to 0.1 µM		
Cn1ncc2cc(Nc3cccc4c3C(=O)N(CC(=O)N3CCOC[C@@H]3C(F)(F)F)C4)cnc21 [Example 57, 7-[(1-methylpyrazolo[3,4-b]pyridin-5-yl)amino]-2-[2-oxo-2-[(3R)-(trifluoromethyl)morpholin-4-yl]ethyl]isoindolin-1-one]	≥ 1 µM	≥ 1 µM		
Cn1ncc2cc(Nc3cccc4c3C(=O)N(CC(=O)N3CCC[C@H]3C(F)F)C4)cnc21 [Example 58, 7-[(1-methylpyrazolo[3,4-b]pyridin-5-yl)amino]-2-[2-oxo-2-[(2S)-(difluoromethyl)pyrrolidin-1-yl]ethyl]isoindolin-1-one]		0.01 to 0.1 µM	A (pIC50>8)	
Cc1n[nH]c2nc(Nc3cccc4c3C(=O)N(CC(=O)NCC(F)(F)F)C4)ccc12 [Example 61, 2-[7-[(3-methyl-1H-pyrazolo[3,4-b]pyridin-6-yl)amino]-1-oxo-isoindolin-2-yl]-N-(2,2,2-trifluoroethyl)acetamide]	0.1 to 1 µM			D (pIC50≤6)
Cc1n[nH]c2cc(Nc3cccc4c3C(=O)N(CC(=O)NCC(F)(F)F)C4)cc(F)c12 [Example 62, 2-[7-[(4-fluoro-3-methyl-1H-indazol-6-yl)amino]-1-oxo-isoindolin-2-yl]-N-(2,2,2-trifluoroethyl)acetamide]			A (pIC50>8)	A (pIC50>8)
Cc1n[nH]c2cc(Nc3cccc4c3C(=O)N(CC(=O)N3CCC[C@H]3C(F)(F)F)C4)cc(F)c12 [Example 64, 7-[(4-fluoro-3-methyl-1H-indazol-6-yl)amino]-2-[2-oxo-2-[(2S)-(trifluoromethyl)pyrrolidin-1-yl]ethyl]isoindolin-1-one]	< 0.01 µM	< 0.01 µM		
Cc1n[nH]c2cc(Nc3cccc4c3C(=O)N(CC(=O)Nc3cnoc3)C4)cc(F)c12 [Example 65, 2-[7-[(4-fluoro-3-methyl-1H-indazol-6-yl)amino]-1-oxo-isoindolin-2-yl]-N-isoxazol-4-yl-acetamide]	0.1 to 1 µM			D (pIC50≤6)
Cc1n[nH]c2cc(Nc3cccc4c3C(=O)N(CC(=O)N3CCC[C@H]3C(F)(F)F)C4)cnc12 [Example 67, 7-[(3-methyl-1H-pyrazolo[4,3-b]pyridin-6-yl)amino]-2-[2-oxo-2-[(2S)-(trifluoromethyl)pyrrolidin-1-yl]ethyl]isoindolin-1-one]	< 0.01 µM	< 0.01 µM		
Cc1n[nH]c2cc(Nc3cccc4c3C(=O)N(CC(=O)N3CCO[C@H](C(F)(F)F)C3)C4)cnc12 [Example 69, 7-[(3-methyl-1H-pyrazolo[4,3-b]pyridin-6-yl)amino]-2-[2-oxo-2-[(2S)-(trifluoromethyl)morpholin-4-yl]ethyl]isoindolin-1-one]	0.01 to 0.1 µM	0.1 to 1 µM		
Cc1n[nH]c2cc(Nc3cccc4c3C(=O)N(CC(=O)N3CCOC[C@H]3C(F)(F)F)C4)cnc12 [Example 70, 7-[(3-methyl-1H-pyrazolo[4,3-b]pyridin-6-yl)amino]-2-[2-oxo-2-[(3S)-(trifluoromethyl)morpholin-4-yl]ethyl]isoindolin-1-one]	0.1 to 1 µM	≥ 1 µM		
Cc1n[nH]c2cc(Nc3cccc4c3C(=O)N(CC(=O)N3CCOC[C@@H]3C(F)(F)F)C4)cnc12 [Example 71, 7-[(3-methyl-1H-pyrazolo[4,3-b]pyridin-6-yl)amino]-2-[2-oxo-2-[(3R)-(trifluoromethyl)morpholin-4-yl]ethyl]isoindolin-1-one]	0.01 to 0.1 µM	0.01 to 0.1 µM		
C[C@H](NC(=O)CN1Cc2cccc(Nc3cnc4[nH]ncc4c3)c2C1=O)C(F)(F)F [Example 73, 2-[1-oxo-7-(1H-pyrazolo[3,4-b]pyridin-5-ylamino)isoindolin-2-yl]-N-[(1S)-2,2,2-trifluoro-1-methyl-ethyl]acetamide]	< 0.01 µM	0.01 to 0.1 µM		
O=C1c2c(cccc2Nc2cnc3[nH]ncc3c2)CN1CC(=O)N1CCC[C@H]1C(F)(F)F [Example 74, 2-[2-oxo-2-[(2S)-(trifluoromethyl)pyrrolidin-1-yl]ethyl]-7-(1H-pyrazolo[3,4-b]pyridin-5-ylamino)isoindolin-1-one]	< 0.01 µM	< 0.01 µM		
O=C(CN1Cc2cccc(Nc3cnc4[nH]ncc4c3)c2C1=O)NC1CC1(F)F (stereo not drawn) [Example 75, N-(2,2-difluorocyclopropyl)-2-[1-oxo-7-(1H-pyrazolo[3,4-b]pyridin-5-ylamino)isoindolin-2-yl]acetamide]	0.01 to 0.1 µM	0.1 to 1 µM		

Continued, values first:

IC50 (Recombinant human DDR1)	IC50 (Recombinant human DDR2)	DDR1 pIC50 (Recombinant human DDR1)	DDR2 pIC50 (Recombinant human DDR2)	Compound
0.1 to 1 µM	0.1 to 1 µM			Cn1ncc2cc(Nc3cccc4c3C(=O)N(CC(=O)N3CCO[C@@H](C(F)(F)F)C3)C4)cnc21 [Example 55, 7-[(1-methylpyrazolo[3,4-b]pyridin-5-yl)amino]-2-[2-oxo-2-[(2R)-(trifluoromethyl)morpholin-4-yl]ethyl]isoindolin-1-one]
0.01 to 0.1 µM	0.1 to 1 µM			Cn1ncc2cc(Nc3cccc4c3C(=O)N(CC(=O)Nc3cccc(C(F)(F)F)c3)C4)cnc21 [Example 59, 2-[7-[(1-methylpyrazolo[3,4-b]pyridin-5-yl)amino]-1-oxo-isoindolin-2-yl]-N-[3-(trifluoromethyl)phenyl]acetamide]
		A (pIC50>8)	A (pIC50>8)	N#Cc1cc(Nc2cccc3c2C(=O)N(CC(=O)NCC(F)(F)F)C3)cc2cn[nH]c12 [Example 60, 2-[7-[(7-cyano-1H-indazol-5-yl)amino]-1-oxo-isoindolin-2-yl]-N-(2,2,2-trifluoroethyl)acetamide]
		A (pIC50>8)	A (pIC50>8)	Cc1n[nH]c2cc(Nc3cccc4c3C(=O)N(CC(=O)N[C@@H](C)C(F)(F)F)C4)cc(F)c12 [Example 63, 2-[7-[(4-fluoro-3-methyl-1H-indazol-6-yl)amino]-1-oxo-isoindolin-2-yl]-N-[(1S)-2,2,2-trifluoro-1-methyl-ethyl]acetamide]
		A (pIC50>8)	A (pIC50>8)	Cc1n[nH]c2cc(Nc3cccc4c3C(=O)N(CC(=O)N[C@@H](C)C(F)(F)F)C4)cnc12 [Example 66, 2-[7-[(3-methyl-1H-pyrazolo[4,3-b]pyridin-6-yl)amino]-1-oxo-isoindolin-2-yl]-N-[(1S)-2,2,2-trifluoro-1-methyl-ethyl]acetamide]
0.01 to 0.1 µM	0.1 to 1 µM			Cc1n[nH]c2cc(Nc3cccc4c3C(=O)N(CC(=O)N3CCO[C@@H](C(F)(F)F)C3)C4)cnc12 [Example 68, 7-[(3-methyl-1H-pyrazolo[4,3-b]pyridin-6-yl)amino]-2-[2-oxo-2-[(2R)-(trifluoromethyl)morpholin-4-yl]ethyl]isoindolin-1-one]
